Experimental data: publication PMC6005897, “Ligand-Induced Variations in Structural and Dynamical Properties Within an Enzyme Superfamily” (Frontiers in Molecular Biosciences, 2018)
Like-named read-outs stand apart in the source and are kept apart here.

Assays:
[1] = biological target: T1, human RNase 2 (RN2_Human) (Homo sapiens, UniProt P10153); test: NMR chemical shift titration, ligand binding to human RNase 2
T1 construct: made in house; host or cells: Escherichia coli
Text: (§1) The pH was carefully monitored throughout the experiments and readjusted with Tris-base or acetic acid if necessary. Ligands 3′-UMP (Chemical Impex Intl Inc., Wood Dale, IL, USA) and 5′-AMP (BioBasic Inc., Markham, ON Canada) were purchased commercially and dissolved in the same buffer as the protein. ^1H-^15N sensitivity-enhanced HSQC experiments were acquired at 800 MHz (18.8 T) using spectral widths (points) of 2025 (160) and 8000 Hz (1024) in the ω1 and ω2 dimensions, respectively. Titration experiments were performed for each ligand with enzyme:ligand molar ratios up to 1:12 (1:12), 1:18 (1:18), 1:24 (1:18), 1:30 (1:18) and 1:18 (1:30) for the 3′-UMP- (5′-AMP-) bound states of bovine RNase A and human RNases 2, 3, 4, and 5, respectively.
(§2) The equilibrium dissociation constant (Kd) was calculated by plotting weighted average chemical shift differences (Δδobs) as a function of ligand concentration and fitting the data using the following equation: […]
(§3) The Kd was estimated by simultaneously fitting the data of all residues affected by ligand binding (Williamson, [2013]). We note that Δδmax is a fitted parameter and not an experimentally measured one. […] Chemical shift perturbations (Δδobs) were calculated as the difference in the weighted average chemical shift of the ligand-bound (5′-AMP and 3′-UMP) and apo states, as shown below. […]

[2] = biological target: T2, human RNase 3 (RN3_Human) (Homo sapiens, UniProt P12724); test: NMR chemical shift titration, ligand binding to human RNase 3
T2 construct: made in house; host or cells: Escherichia coli
T2 sequence (P12724 28-160): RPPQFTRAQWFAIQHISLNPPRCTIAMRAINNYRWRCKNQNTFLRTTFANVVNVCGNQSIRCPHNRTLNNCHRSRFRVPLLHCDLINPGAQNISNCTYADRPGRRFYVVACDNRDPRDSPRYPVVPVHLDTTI
Text: as §1
The equilibrium dissociation constant (Kd) was calculated by plotting weighted average chemical shift differences (Δδobs) as a function of ligand concentration and fitting the data using the following equation:
(1) Δδobs=Δδmax/2[P]t([P]t+[L]t/[P]t[P]t+Kd −([P]t+[L]t/[P]t[P]t+Kd)^2−4[L]t/[P]t[P]^2t)
The Kd was estimated by simultaneously fitting the data of all residues affected by ligand binding (Williamson, [2013]). We note that Δδmax is a fitted parameter and not an experimentally measured one. Uncertainties on these values are given by the standard deviations of the fits. Chemical shift perturbations (Δδobs) were calculated as the difference in the weighted average chemical shift of the ligand-bound (5′-AMP and 3′-UMP) and apo states, as shown below.
(2) Δδobs=(ΔδH)^2+(0.2ΔδN)^2/2

[3] = biological target: T3, human RNase 4 (RN4_Human) (Homo sapiens, UniProt P34096); test: NMR chemical shift titration, ligand binding to human RNase 4; conditions: 298 K, 15 mM sodium acetate pH 5.0, ± standard deviation of the fit
T3 construct: made in house; host or cells: Escherichia coli
T3 sequence (P34096 29-147): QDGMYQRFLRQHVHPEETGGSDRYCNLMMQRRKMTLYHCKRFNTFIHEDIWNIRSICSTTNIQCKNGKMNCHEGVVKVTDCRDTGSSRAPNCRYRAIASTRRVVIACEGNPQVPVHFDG
Text: as §1, §2, §3

[4] = biological target: T4, human RNase 5 (RN5_Human) (Homo sapiens, UniProt P03950); test: NMR chemical shift titration, ligand binding to human RNase 5; conditions: 298 K, 15 mM sodium acetate pH 5.0, ± standard deviation of the fit
T4 construct: made in house; host or cells: Escherichia coli
Text: as §1, §2, §3

[5] = biological target: bovine RNase A (RNA_Bovine); parameters: method as in Gagné et al. ([2012]); conditions: ref Gagné et al. ([2012]); cited from earlier work
[6] = RN3_Human, 298 K, 15 mM sodium acetate pH 5.0, ± standard deviation of the fit, read-out: Kd

T1 sequence (P10153 28-161): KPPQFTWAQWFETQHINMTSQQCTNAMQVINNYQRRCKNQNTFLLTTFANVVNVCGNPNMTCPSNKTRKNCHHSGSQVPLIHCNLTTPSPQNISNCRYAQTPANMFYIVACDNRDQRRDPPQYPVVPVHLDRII
T4 sequence (P03950 25-147): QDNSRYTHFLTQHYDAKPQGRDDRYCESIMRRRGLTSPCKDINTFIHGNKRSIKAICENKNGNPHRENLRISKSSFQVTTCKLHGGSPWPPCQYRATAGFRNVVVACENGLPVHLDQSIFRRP

| Compound | Kd [1] [µM] | Kd [2, 6] [µM] | Kd [3] [mM] | Kd [4] [mM] | Kd [5] [µM] | Kd ([1]; RN2_Human, 298 K, 15 mM sodium acetate pH 5.0, ± standard deviation of the fit, read-out: Kd) [µM] | Kd [2] [µM] |
| --- | --- | --- | --- | --- | --- | --- | --- |
| O=c1ccn([C@@H]2O[C@H](CO)[C@@H](OP(=O)(O)O)[C@H]2O)c(=O)[nH]1 [3′-UMP] | 456 ± 10.6 | 460 ± 100 | 10.3 | 1.94 | 9.7 ± 0.9 |  |  |
| Nc1ncnc2c1ncn2[C@@H]1O[C@H](COP(=O)(O)O)[C@@H](O)[C@H]1O [5′-AMP] |  |  |  |  | 124 ± 1 | 540 ± 31.4 | 300 ± 45 |
| dATATA |  | 302 ± 31 | 0.0729 ± 0.009 |  |  |  |  |
